Data published in US20150219624A1, “METHODS FOR IDENTIFYING ANTI-CANCER COMPOUNDS” (MEMORIAL SLOAN KETTERING CANCER CENTER, priority 2013, published 2015).

Assays:
[1] = tested on: cap-dependent translation; experiment: Dual-luciferase reporter assay (capped vs IRES-driven luciferase); type: cell-based; conditions: renilla and firefly luciferase either capped or under control of an IRES element
Description: Luciferase assays. Four tandem repeats of the (CGG)4 12-mer motif (GQs) or random sequence matched for length and GC content (random) were cloned into the 5′UTR of Renilla luciferase plasmid pGL4.73. Empty firefly luciferase plasmid pGL4.13 or HCV-IRES firefly were used as internal controls. Luciferase assays were performed using Dual-Luciferase Reporter Assay System (Promega E1960) following the manufacturer's instructions. GQs sequence: […]

[2] = tested on: S6 phosphorylation and AKT (T308) phosphorylation; experiment: Immunoblots of S6 and AKT phosphorylation in KOPT-K1 cells; type: cell-based, human; conditions: 25 nM, 48 hours
Description: (§1) Immunoblots. Lysates were made using Laemli lysis buffer. 30 ug of protein was loaded onto SDS-PAGE gels then transferred onto Immobilon-FL Transfer Membranes (Millipore IPFL00010). The antibodies used were α-Tubulin (Sigma T5168), β-actin (Sigma A5316), Myc (Santa Cruz Biotechnology sc-40), p-Akt 308 (Cell Signaling 9275), Akt (Cell Signaling 9272), S6 (Cell Signaling 2317), and p-S6 (Cell Signaling 2215), Notch1 (Cell signaling 3608), Myb (Santa Cruz Biotechnology, sc-517), CDK6 (Cell Signaling 3136), EZH2 (Cell Signaling 5246), Mdm2 (Santa Cruz Biotechnology, sc-965), Bcl2 (Santa Cruz Biotechnology, sc-509), Run×1 (Cell Signaling 4336), and GAPDH (Cell Signaling 5174).
(§2) E) Simplified diagram of rapamycin and silvestrol mechanism of action.

[3] = tested on: primary human T-ALL samples; experiment: Viability / apoptosis induction in primary human T-ALL samples; type: cell-based
Description: as §2

KOPT-K1 xenografts = experiment: KOPT-K1 xenograft study; conditions: for tumor growth: d 0-6, systemic; for toxicity, death, weight loss: treated mice, therapeutic doses
Description: Statistical analysis. All Kaplan-Meier curves were analyzed using the Mantel-Cox test. The significance of xenografted tumor size differences was determined using two-way repeated measures ANOVA tests. RT-PCRs were analyzed with two tailed t-tests.
Xenografts. 5,000,000 KOPT-K1 cells in 30% matrigel (BD 354234) were injected subcutaneously into C.B-17 scid mice. […] Tumor size was measured daily by caliper. P-values were calculated using 2-way repeated measures ANOVA.
Cycloheximide (C7698) and Rapamycin (R8781) were purchased from Sigma.
D) KOPT-K1 xenograft studies.

JURKAT and KOPT-K1 cells = experiment: Immunoblots of target proteins in human T-ALL lines; type: cell-based; conditions: 25 nM, immunoblot
Description: as §1
Given the complexity of the RF data analysis, it was important to directly confirm loss of expression for at least some of these proteins. Briefly, immunoblots on JURKAT and KOPT-K1 cells treated with silvestrol (25 nM) and loaded with equal amounts of total protein confirmed dramatic loss of MYC, NOTCH1, BCL2, and CCND3 proteins (FIG. 6A). The effect on MYC was especially striking, it was dose dependent (FIG. 6B), lasted for 48 h, and was also achieved in xenografts in vivo (Figure S6A-B). […] As expected, ACTIN, TUBULIN, and GAPDH were not affected (FIG. 6A). […] The small and significant increase in MYC mRNA levels might be consistent with prior reports of a MYC auto-regulatory mechanism (Penn et al., 1990a; Penn et al., 1990b) (FIG. 6C).
FIG. 6 depicts validation of selected silvestrol targets. A) Immunoblots of lysates from human T-ALL lines treated with silvestrol (25 nM) and probed as indicated. B) Immunoblots of lysates from JURKAT cells treated with escalating doses of silvestrol and probed as indicated. C) mRNA levels for the corresponding genes treated with vehicle (DMSO, black) or silvestrol (red, 25 nM); D) Volcano plot of mRNA expression changes of all TE Down and rDiff genes in T-ALL samples (n=9) compared to normal thymocytes (n=4). E) Kaplan-Meier analysis showing time to leukemia development (as in FIG. 1B). Wild-type HPCs transduced with NOTCH1-ICN and empty vector (black, n=14), Myb (red, n=4), Ccnd3 T283A (orange, n=5), or shEzh2 (orange, n=10), vavP-Bcl2 (brown, n=4), p53−/− (green, n=3). F) Effect of OmoMYCER activation on survival of leukemic animals; (d=0 represents start of therapy/tamoxifen (TAM) administration). Inset: clearance of GFP expressing murine T-ALL cells from the marrow upon OmomycER activation (Untr: untreated, TAM: tamoxifen). G) Competition experiment (as in FIG. 1C/D) showing the percentage of each starting GFP positive population of murine T-ALL cells partially transduced with the indicated constructs and treated with silvestrol (* indicates p<0.05).
FIG. 13 depicts the relative contribution of MYC and other silvestrol targets in T-ALL. […]

renal carcinoma lines = experiment: Silvestrol sensitivity of renal carcinoma lines; type: cell-based; conditions: ACHN, A498, CAKI-1, CAKI-2 to 786-O

Compound	block of cap-dependent versus IRES-dependent translation [1]	phosphorylation of AKT (T308) [2]	ribosomal S6 phosphorylation / S6 kinase activity [2]	IC50 ([3]; primary human T-ALL samples in vitro, 48 hours) [nM]	tumor growth (KOPT-K1 xenografts; 0.5 mg/kg, n=7, p<0.001)	toxicity, death, weight loss (KOPT-K1 xenografts)	ACTIN, TUBULIN and GAPDH protein levels (JURKAT and KOPT-K1 cells)	MYB, CDK6, EZH2 and RUNX1/AML1 protein expression (JURKAT and KOPT-K1 cells)	MYC, NOTCH1, BCL2 and CCND3 protein levels (JURKAT and KOPT-K1 cells)	sensitivity (renal carcinoma lines)	in vitro activity against T-ALL compared with silvestrol ([3]; not shown)	tumor growth (KOPT-K1 xenografts; 0.2 mg/kg, n=8, p<0.001)	pathologic analysis of treated tumors (TUNEL, Ki-67) (KOPT-K1 xenografts; treated KOPT-K1 tumors)	target protein levels compared with silvestrol result (JURKAT and KOPT-K1 cells; 24H)
COC(=O)[C@H]1[C@@H](O)[C@@]2(O)c3c(OC)cc(O[C@@H]4O[C@@H]([C@H](O)CO)CO[C@H]4OC)cc3O[C@@]2(c2ccc(OC)cc2)[C@@H]1c1ccccc1 [silvestrol]	preferentially block cap-dependent over IRES-dependent translation	did not lead to phosphorylation of AKT (T308)	does not affect S6 kinase activity	3 to 13	significant delay in tumor growth	no severe toxicity, death, or weight loss	not affected	somewhat less decreased	dramatic loss	range of sensitivities				
(±)-CR-31-B	preferentially block cap-dependent over IRES-dependent translation	did not lead to phosphorylation of AKT (T308)	does not affect S6 kinase activity			no severe toxicity, death, or weight loss					similar	significant delay in tumor growth	diffuse apoptosis by TUNEL and loss of proliferation by Ki-67	same result was confirmed
